Earlier results as cited in patent publication US20120201889A1, “MODIFIED AND IMMEDIATE RELEASE FORMULATIONS OF MEMANTINE” (Forest Laboratories Holdings Ltd., priority 2005, published 2012).

Details: after oral administration

CC12CC3CC(C)(C1)CC(N)(C3)C2 [memantine, 1-amino-3,5-dimethyladamantane]
absolute bioavailability: approximately 100%
